Test results from US6734292B1, “Pseudoerythromycin derivatives” (The Kitasato Institute, priority 2002, dated 2004).
Values joined by “and” are separate entries in the source; they are usually repeats but may differ in a detail not shown here. Identical values can stand only once.

Key:
[1] = test system: bleomycin-induced pulmonary fibrosis; assay: suppressive effect against bleomycin-induced pulmonary fibrosis (hydroxyproline levels in tissue); type: in vivo, mice; settings: for Hydroxyproline levels in tissue, Assay result / Hydroxyproline levels in tissue, Weight conversion: day-28, individual mice
[2] = test system: influenza virus-induced pneumonia; assay: suppressive effect against pneumonia caused by influenza viral infection (mice influenza pneumonia model); type: in vivo
Method: Next, the suppressive effect of the compound EM703 against pneumonia caused by influenza viral infection was examined.
Sample was dissolved in physiological saline containing 1% DMSO and amount corresponding to oral dosage of the small administration for long-term therapy was administered from day-1 to day-6 of the infection to mice influenza pneumonia model (0.3 mg and 0.03 mg/mice), once a day, intraperitoneally. Results were compared with control group which was given only solvent.
In this system, mice developed pneumonia and almost died about 20 days after infection. […] This indicates suppressive effect against pneumonia and result to cure pneumonia.

THP-1 cells = assay: enhancing effect for differentiation-induction from human monocyte to macrophage (THP-1/Mφ system, MTT readout); type: cell-based; set-up: key: ++: enhanced 100% or more; +: enhanced 50-100%; ±: enhanced 25-50%; −: no activity; /: expressed cytoxicity; NT: not tested or under assessment; settings: in comparison with enhancing action for differentiation-induction of EM 100 μM
Method: In order to confirm enhancing effect for differentiation-induction of the compounds of the present invention, the enhancing effect for differentiation-induction from human monocyte to macrophage was assayed. Method is performed as follows. THP-1 cells were collected from cultured liquid by centrifugation, adjusted the concentration to 2×10^5 cells/ml using medium (RPMI 1640) and distributed into the 48-well plate at 500 μl/well. PMA solution 10 μl and sample solution 5 μl were added in each well, stirred with mild shaking and incubated at 37° C. for 72-96 hours under 5% CO2. Further MTT 0.5 mg/ml solution was added at 300 μl/well, and incubated at 37° C. for 3 hours under 5% CO2. Supernatant solution was suctioned using the injection tube, added DMSO 500 μl using automatic continuous injector to dissolve formazan completely and transferred each 100 μl to the 96-well plate. The optical absorption was measured using the plate-reader.

[3] = BLM + EM703 group: BLM 100 mg/kg tail vein day-0, EM703 50 mg/kg/day orally for 17 days
[4] = EM703 group (no BLM), 50 mg/kg/day orally, 50 mg/kg/day

Row | SMILES | Hydroxyproline levels in tissue, Assay result [1, 3] | Hydroxyproline levels in tissue, Weight conversion [1, 3] | Hydroxyproline level, an index for lung injury, BLM+EM703 group versus BLM administered group ([1]; EM703 50 mg/kg/day orally, BLM 100 mg/kg) | Hydroxyproline levels in tissue, Assay result [1, 4] | Hydroxyproline levels in tissue, Weight conversion [1, 4] | survival of mice ([2]; EM703 0.3 mg/mice intraperitoneally once a day, day-1 to day-6 of infection, control mice almost died about 20 days after infection, FIG. 2) [%] | body weight ([2]; administration of EM703 intraperitoneally, control showed significant decrease of body weight, FIG. 3) | suppressive effect against influenza virus-induced pneumonia ([2]; mice influenza pneumonia model, 0.3 mg/mice) | activities in THP-1/Mφ system, Treated conc. 0.3 μM (THP-1 cells) | activities in THP-1/Mφ system, Treated conc. 1 μM (THP-1 cells) | activities in THP-1/Mφ system, Treated conc. 3 μM (THP-1 cells) | activities in THP-1/Mφ system, Treated conc. 10 μM (THP-1 cells) | melting point [°C]
1 | CC[C@H]1O[C@]2(O)O[C@H]([C@@H](C)C3O[C@@](C)(C[C@@H]3C)[C@H](O[C@@H]3OC(C)CC(NC)C3O)[C@@H](C)[C@H](O[C@H]3CC(C)(OC)[C@@H](O)C(C)O3)[C@H]2C)[C@]1(C)O (some centres unmarked) [EM703, de(3′-N-methyl)-8,9-anhydro-pseudoerythromycin A 6,9-hemiketal] | 583 µmol/L and 495 µmol/L and 437 µmol/L and 314 µmol/L | 5.2 µmol/g and 4.5 µmol/g and 4.4 µmol/g and 2.9 µmol/g | reduced | 552 µmol/L and 489 µmol/L and 591 µmol/L | 5.0 µmol/g and 4.6 µmol/g and 5.4 µmol/g | 40 | increase body weight from day-10 | cured pneumonia | + (enhanced 50-100%) | + (enhanced 50-100%) | + (enhanced 50-100%) | + (enhanced 50-100%) | 
2 | CC[C@H]1O[C@]2(O)O[C@H]([C@@H](C)C3O[C@@](C)(C[C@@H]3C)[C@H](O[C@@H]3OC(C)CC(N4CCCCCC4)C3O)[C@@H](C)[C@H](O[C@H]3CC(C)(OC)[C@@H](O)C(C)O3)[C@H]2C)[C@]1(C)O (some centres unmarked) [EM748, de(3′-dimethylamino)-3′-[hexahydro-1(1H)-azepinyl]-8,9-anhydro-pseudoerythromycin A 6,9-hemiketal] |  |  |  |  |  |  |  |  | − | ± (enhanced 25-50%) | ++ (enhanced 100% or more) | ++ (enhanced 100% or more) | 120 to 123
